Source: patent US4283408A, “Guanidinothiazole compounds, process for preparation and gastric inhibiting compositions containing them” (Yamanouchi Pharmaceutical Co., Ltd., priority 1979, dated 1981)

Experiments:
Gastric acid secretion [1] = experiment: Gastric acid secretion in pylorus-ligated rats; type: in vivo, Male Wister rats; details: Rattus norvegicus, read-out: (B) Pylorus-ligated rats ED50
Protocol: (ii) Gastric acid secretion in pylorus-ligated rats
Male Wister rats weighing about 200 g were deprived of food for 24 hr but allowed free access to water prior to the experiments in individual cages. […] Test compounds were intraduodenally given immediately after the ligation of pylorus. The animals were sacrificed 4 hr after drug administration and gastric contents were collected. […] The percent inhibition of gastric secretion by each dose of drugs was calculated from the acid outputs of control and of treated groups. ED50 values were determined by the probit method.

Gastric acid secretion [2] = experiment: Gastric acid secretion in anesthetized dogs (histamine-induced); type: in vivo, Mongrel dogs; details: Canis lupus familiaris, iv, read-out: (A) Gastric secretion ED50
Protocol: (i) Gastric acid secretion in anesthetized dogs: Mongrel dogs weighing 8 to 15 Kg were deprived of food for 24 hr and anesthetized intravenously with pentobarbital (30 mg/Kg). […] The gastric juice was collected from the gastric cannula by gravity drainage every 15 min. Test compounds were given intravenously after gastric secretion induced by a continuous intravenous infusion of histamine (160 μg/Kg-hr) reached a steady state.

Acute toxicity in mice = details: mouse, in vivo, iv; male ICR mice; i.v.; 7 days observation; up and down method; base; read-out: (C) LD50 in mice
Protocol: (iii) Acute toxicity in mice
Drugs were injected intravenously in male ICR mice weighing about 35 g at a rate of 0.1 ml/10 sec and the animals were kept under observation for 7 days. LD50 values were determined by up and down method using 10 animals. The data are shown in Table I, under column entitled (C).

H2 -receptor = details: isolated guinea pig atrium; effects mediated by the H2 -receptor; Ash and Schild, Black et al.; cited from earlier work
[3] = pylorus-ligated rats, intraduodenal, 4 hr, probit method, base
[4] = anesthetized dogs, i.v., histamine infusion 160 μg/Kg-hr, dose producing 50% inhibition of the acid output, base

CN/C(=N/CCSCc1nc[nH]c1C)NC#N [Compound A, Ncyano-Nmethyl-N{2[(4methyl-5-imidazolyl)methylthio]ethyl}guanidine]
ED50 (Gastric acid secretion [1]; 4 h): 42.6 mg/kg | ED50 (Gastric acid secretion [2]): 0.333 ± 0.042 mg/kg | LD50 at 168 h (Acute toxicity in mice): 152 mg/kg

N#CN=C(N)NCCSCc1csc(NC(=N)N)n1 [Compound B, 2guanidino-4-[2(2-cyanoguanidino)ethylthiomethyl]thiazole]
ED50 (Gastric acid secretion [1]; [3]): 49.3 mg/kg | ED50 (Gastric acid secretion [2]; [4]): 0.0352 ± 0.0022 mg/kg | LD50 at 168 h (Acute toxicity in mice): 94.6 mg/kg

NC(N)=Nc1nc(CSCCC(N)=NS(N)(=O)=O)cs1 [Example 1, N-sulfamoyl-3-[(2-guanidinothiazol-4-yl)methylthio]propionamidine]
ED50 (Gastric acid secretion [1]; [3]): 0.87 mg/kg | ED50 (Gastric acid secretion [2]; [4]): 0.0087 ± 0.0005 mg/kg | LD50 at 168 h (Acute toxicity in mice): 244 mg/kg

CS(=O)(=O)NC(=N)CCSCc1csc(NC(=N)N)n1 [Example 2, N-methanesulfonyl-3-[(2-guanidinothiazol-4-yl)-methylthio]propionamidine]
ED50 (Gastric acid secretion [1]; [3]): 8.9 mg/kg | ED50 (Gastric acid secretion [2]; [4]): 0.0191 ± 0.0026 mg/kg | LD50 at 168 h (Acute toxicity in mice): 152 mg/kg

COc1ccc(CN(CCN(C)C)c2ccccn2)cc1 [mepyramine]
inhibition of histamine effects on gastric acid secretion and heart rate (H2 -receptor): not inhibited

C/N=C(\S)NCCSCc1[nH]cnc1C [metiamide]
inhibition of histamine effects on gastric acid secretion and heart rate (H2 -receptor): antagonized
